Consider six compounds from US20230399325A1, “SUCCINATE AND CRYSTAL FORM THEREOF AS THERAPEUTICS” (AUCENTRA THERAPEUTICS PTY LTD, priority 2020, published 2023).

Values after ≈ are worked out from the molar mass of the structure shown. Values joined by “and” are separate entries in the source; they are usually repeats but may differ in a detail not shown here. Equal values may be shown once. Read-outs that look alike come from different tables or passages of the source.

A short description of data set [1]: Dynamic solubility in water and FaSSIF at 37° C. Format: physicochemical. The note with it: for solubility compared to Compound A free base: both FaSSIF and water; for solubility at 1 h / solubility at 2 h / solubility at 4 h / solubility at 24 h: thermodynamic from solid, read-out: S: Solubility.
Data set [2] in a line: Solid-state stability, 14 days, HPLC. Format: physicochemical. On the procedure: Compound A salts and Compound A were tested for their solid-state stability under the conditions of 25° C./60% RH and 40° C./75% RH.
A short description of data set [3]: Hygroscopicity by dynamic moisture adsorption (DVS). Format: physicochemical. The note with it: for Hygroscopicity: 25° C./80% RH. On the procedure: Dynamic moisture adsorption (DVS) was used to evaluate the hygroscopicity of compound A and salt forms under the condition of 25° C. and 80% RH.
Data set [4] relates to COLO 205 colorectal tumor xenograft. Nature of the data set: COLO 205 colorectal tumor xenograft. Format: in vivo, mice. The note with it: 15 mg/kg intraperitoneally. On the procedure: A separate study of Compound A succinate was conducted in COLO 205 colorectal tumor xenograft. The tumor-bearing mice (n=8) were treated orally with vehicle (ultra-pure water), or Compound A succinate (50 or 100 mg/kg) once daily for 21 days. As a positive control chemotherapy 5-FU (15 mg/kg) was given intraperitoneally. […] 5-FU was also effective with a T/C=47.2% (Table 7).

Data set [5] has as its system A2780 ovarian cancer cells. Nature of the data set: Subcutaneous A2780 ovarian cancer xenograft. Format: in vivo, female BALB/c nude mice. The note with it: 75 mg/kg orally once a day. On the procedure: Compound A succinate was also assessed for in vivo anti-tumor activity in subcutaneous xenografts. Briefly, female BALB/c nude mice were inoculated with A2780 ovarian cancer cells; when the mean tumour volume reached 150-200 mm^3, animals were randomized to groups. The animals (n=8 per group) were treated orally with vehicle (ultra-pure water), Compound A succinate (62.5, 125 or 250 mg/kg), or Palbociclib (75 mg/kg) once a day for 14 consecutive days. Mice were observed daily for signs of toxicity and weight loss, and tumour volume measured every other day. […] Palbociclib was efficacious at 75 mg/kg, resulting in T/C of 42.8% (Table 6).

A short description of data set [6]: Pharmacokinetic study of Compound A in male cynomolgus monkeys. Format: in vivo. On the procedure:
Two groups of male cynomolgus monkeys (n=3 per group) were given Compound A by a single intravenous injection (i.v.) of 5 mg/kg, or intragastric administration (i.g.) of 50 mg/kg. Blood samples were collected at different time points. The exposure of Compound A in plasma samples were measured by LC-MS/MS method, and PK parameters (Table 8) were calculated using Phoenix WinNonlin 8.0 software.

[7] abbreviates: cynomolgus monkey, plasma, iv, i.v. 5 mg/kg.
Where [8] appears, read: cynomolgus monkey, plasma, po, i.g. 50 mg/kg.

As for `CCN1CCN(Cc2ccc(Nc3ncc(F)c(-c4sc(NC5CCCC5)nc4C)n3)nc2)CC1.Cl` [Compound A hydrochloride], the “S: Solubility” value worked out at 2000 µg/mL in data set [1] (FaSSIF, 1 hour); 2000 µg/mL in data set [1] (FaSSIF, 2 hours); 2200 µg/mL in data set [1] (FaSSIF, 4 hours); 2100 µg/mL in data set [1] (FaSSIF, 24 hours); 6800 µg/mL in data set [1] (H2O, 1 hour); 7100 µg/mL in data set [1] (H2O, 2 hours). The “S: Solubility” value in data set [1] (H2O, 4 hours) is 7200 µg/mL; in data set [1] (H2O, 24 hours) it was 6800 µg/mL. In addition, in data set [1], the “solubility compared to Compound A free base” value is “significantly increased”. The Purity in data set [2] (25° C./60% RH) came out at 97.6 area %; in data set [2] (40° C./75% RH), 97.7 area %. Besides, the figures for the Relative purity in data set [2] (25° C./60% RH) and in data set [2] (40° C./75% RH) were 99.9 % of initial and 100.0 % of initial, respectively. Also, in data set [3], the “Moisture absorbed at 25° C./80% RH” value was determined as 3.4%. Moreover, in data set [3], the Hygroscopicity result was “Hygroscopic”.

Turning to `O=c1[nH]cc(F)c(=O)[nH]1` [Compound 5-FU, 5-FU, reference compound], in data set [4], the “Inhibition of tumor growth (T/C)” value is listed as 47.2% and the “Tumor volume (±S)” value stood at 799.62 ± 61.95 mm^3.

With `CC(=O)c1c(C)c2cnc(Nc3ccc(N4CCNCC4)cn3)nc2n(C2CCCC2)c1=O` [Palbociclib, reference compound], the “Tumor volume (±S)” value in data set [5] (14 days) was found to be 1850.1 ± 121.1 mm^3. In data set [5] (day 14), the “Mean tumor growth inhibition (T/C)” value was 42.8% and 42.79%.

For the compound `CCN1CCN(Cc2ccc(Nc3ncc(F)c(-c4sc(NC5CCCC5)nc4C)n3)nc2)CC1.CS(=O)(=O)O` [Compound A mesylate], the “S: Solubility” value in data set [1] (FaSSIF, 1 hour) worked out at 8800 µg/mL; in data set [1] (FaSSIF, 2 hours), 8300 µg/mL; in data set [1] (FaSSIF, 4 hours), 8400 µg/mL; in data set [1] (FaSSIF, 24 hours), 4400 µg/mL; in data set [1] (H2O, 1 hour), 8200 µg/mL; in data set [1] (H2O, 2 hours) it was 8300 µg/mL. Besides, the “S: Solubility” value in data set [1] (H2O, 4 hours) is 8600 µg/mL; in data set [1] (H2O, 24 hours), 8500 µg/mL. The “solubility compared to Compound A free base” value in data set [1] was “significantly increased”. The Purity is 97.6 area % in data set [2] (25° C./60% RH) and 97.5 area % in data set [2] (40° C./75% RH). Besides, the Relative purity in data set [2] (25° C./60% RH) is 100.1 % of initial; in data set [2] (40° C./75% RH) it was 100.0 % of initial. Besides, the “Moisture absorbed at 25° C./80% RH” value in data set [3] worked out at 14.4%. The Hygroscopicity result in data set [3] was “Extremely hygroscopic”.

On to `CCN1CCN(Cc2ccc(Nc3ncc(F)c(-c4sc(NC5CCCC5)nc4C)n3)nc2)CC1.O=P(O)(O)O` [Compound A phosphate], for which the “S: Solubility” value in data set [1] (FaSSIF, 1 hour) is 1700 µg/mL; in data set [1] (FaSSIF, 2 hours), 670 µg/mL; in data set [1] (FaSSIF, 4 hours), 470 µg/mL; in data set [1] (FaSSIF, 24 hours), 330 µg/mL; in data set [1] (H2O, 1 hour), 450 µg/mL; in data set [1] (H2O, 2 hours), 410 µg/mL. The “S: Solubility” value in data set [1] (H2O, 4 hours) is 440 µg/mL; in data set [1] (H2O, 24 hours), 360 µg/mL. The Purity in data set [2] (25° C./60% RH) came to 98.3 area %; in data set [2] (40° C./75% RH) it was 98.2 area %. Besides, the Relative purity is reported as 100.0 % of initial in data set [2] (25° C./60% RH) and 99.9 % of initial in data set [2] (40° C./75% RH). In addition, in data set [3], the “Moisture absorbed at 25° C./80% RH” value stood at 3.7%. For the same compound, the Hygroscopicity result in data set [3] is given as “Hygroscopic”.

The term solubility denotes the concentration that dissolves in the medium under given conditions. A word on the AUC(0-inf): it is the area under the concentration-time curve extrapolated to infinity. High values mean more exposure, low ones less exposure. A word on the AUC(0-t): it is exposure summed from dosing to a finite time, without extrapolation to infinity. What is called Cmax is the highest concentration seen after dosing. Usually Vd stands for the apparent volume that relates the amount in the body to the concentration in plasma or blood. A high value points to wide distribution into tissue. For orientation: clearance means the volume of plasma or blood freed of the substance per unit of time. A high value points to a high capacity for elimination. Usually half-life stands for the time in which the quantity being followed falls by half. A lower half-life goes with fast loss. Take `CCN1CCN(Cc2ccc(Nc3ncc(F)c(-c4sc(NC5CCCC5)nc4C)n3)nc2)CC1` [Compound A, N-Cyclopentyl-5-(2-((5-((4-ethylpiperazin-1-yl)methyl)pyridin-2-yl)amino)-5-fluoropyrimidin-4-yl)-4-methylthiazol-2-amine]: the solubility at 1 h in data set [1] (FaSSIF, 1 hour) amounted to 270 µg/mL (≈ 544 µM). The solubility at 2 h in data set [1] (FaSSIF, 2 hours) worked out at 280 µg/mL (≈ 564 µM). Further, the solubility at 4 h in data set [1] (FaSSIF, 4 hours) amounted to 240 µg/mL (≈ 483 µM). The solubility at 24 h in data set [1] (FaSSIF, 24 hours) is 200 µg/mL (≈ 403 µM). Moreover, the solubility at 1 h in data set [1] (water, H2O, 1 hour) amounted to 220 µg/mL (≈ 443 µM). Further, in data set [1] (water, H2O, 2 hours), the solubility at 2 h worked out at 240 µg/mL (≈ 483 µM). Also, the solubility at 4 h in data set [1] (water, H2O, 4 hours) amounted to 240 µg/mL (≈ 483 µM). Further, in data set [1] (water, H2O, 24 hours), the solubility at 24 h came out at 220 µg/mL (≈ 443 µM). Moreover, in data set [2] (25° C./60% RH), the Purity is on record as 97.6 area % and the Relative purity is given as 100.0 % of initial. Further, in data set [2] (40° C./75% RH), the Purity is reported as 97.6 area % and the Relative purity is reported as 100.1 % of initial. In data set [3], the “Moisture absorbed at 25° C./80% RH” value is reported as 1.4% and the Hygroscopicity result is “Slightly hygroscopic”. In data set [6] (setting [7]), this compound had an AUC(0-inf) of 4560 ng·h/mL, an AUC(0-t) of 4190 ng·h/mL, a Cmax of 447 ng/mL and a Vd of 9.8 L/kg. In data set [6] (setting [7]), the clearance was 19.4 mL/min/kg and the half-life was 6.5 h. In data set [6] (setting [8]), this compound gave a Cmax of 643 ng/mL and a half-life of 8.3 h. Further, the F in data set [6] (i.g. 50 mg/kg) was 21.8%.
